From ChEMBL document CHEMBL5352417, “Design, synthesis, and biological evaluation of aromatic tertiary amine derivatives as selective butyrylcholinesterase inhibitors for the treatment of Alzheimer's disease” (Eur J Med Chem, 2022) come the findings set out here.

The structures appear in SMILES notation. pIC50: −log10 of the molar value.

Data set [1] addresses Cholinesterase (Equus caballus, UniProt P81908). Kind of data set: Inhibition of horse serum BuChE using butyrylthiocholine iodide as substrate measured for 3 mins by Ellman's method. The data set is classed as cell-free. A general note: DTNB colorimetry detects thiols as they appear.
The target in data set [2] is Cholinesterase (Equus caballus) (UniProt P81908). Kind of data set: Inhibition of horse serum BuChE using butyrylthiocholine iodide as substrate at <10 uM measured for 3 mins by Ellman's method relative to control. In kind it is cell-free.
Data set [3] deals with Acetylcholinesterase (Electrophorus electricus) (UniProt O42275). Kind of data set: Inhibition of electric eel AchE using acetylthiocholine iodide as substrate at <10 uM measured for 3 mins by Ellman's method relative to control.
The nature of data set [4]: Effective permeability of compound at 25 ug/ml incubated for 18 hrs by PAMPA-BBB assay. The following applies: dose 25 µg/ml, read-out: Peff. The data set is classed as ADME.
Data set [5] in a line: Neurotoxicity against rat PC12 cells assessed as survival rate incubated for 24 hrs by MTT assay relative to control. In kind it is toxicity, cell-based, PC-12. Further details: concentration or dose not given beside the values. As to conditions: read-out: Survival. A general note: Tetrazolium dyes change colour on reduction, which living cells bring about.
Data set [6] is described as follows: Neurotoxicity against mouse HT-22 cells assessed as survival rate incubated for 24 hrs by MTT assay relative to control. In kind it is toxicity, cell-based. The following applies: read-out: Survival. Further details: concentration or dose not given beside the values.
Data set [7] is described as follows: Neurotoxicity against mouse BV-2 cells incubated for 24 hrs by MTT assay. The data set is classed as toxicity, cell-based. The following applies: read-out: LD50.
Data set [8] is described as follows: Neurotoxicity against human SH-SY5Y cells assessed as survival rate incubated for 24 hrs by MTT assay relative to control. The data set is classed as toxicity, cell-based. Further details: concentration or dose not given beside the values. The following applies: read-out: Survival.
For data set [9], the target named is Cholinesterase (Homo sapiens, UniProt P06276). In words: Inhibition of human BChE using butyrylthiocholine iodide as substrate measured for 3 mins by Ellman's method.
A short description of data set [10]: Neurotoxicity against rat PC12 cells incubated for 24 hrs by MTT assay. As to conditions: read-out: LD50. In kind it is toxicity, cell-based, PC-12.

Chain of Cholinesterase (Equus caballus, UniProt P81908) (P81908 whole entry): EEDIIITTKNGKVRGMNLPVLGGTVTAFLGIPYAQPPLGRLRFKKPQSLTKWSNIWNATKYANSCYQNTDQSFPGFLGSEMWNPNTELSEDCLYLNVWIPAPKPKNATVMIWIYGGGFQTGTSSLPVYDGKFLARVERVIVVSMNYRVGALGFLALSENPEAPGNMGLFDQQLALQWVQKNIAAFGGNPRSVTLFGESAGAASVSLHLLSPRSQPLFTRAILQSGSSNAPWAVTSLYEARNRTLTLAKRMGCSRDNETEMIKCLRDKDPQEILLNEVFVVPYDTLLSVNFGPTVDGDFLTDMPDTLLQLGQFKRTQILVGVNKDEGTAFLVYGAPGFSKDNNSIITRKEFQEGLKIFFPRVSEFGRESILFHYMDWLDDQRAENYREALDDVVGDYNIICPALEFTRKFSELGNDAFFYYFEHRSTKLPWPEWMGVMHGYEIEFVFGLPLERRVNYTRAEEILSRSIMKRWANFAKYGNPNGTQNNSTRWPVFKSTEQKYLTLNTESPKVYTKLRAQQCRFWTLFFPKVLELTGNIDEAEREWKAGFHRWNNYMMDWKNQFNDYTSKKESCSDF
Chain of Cholinesterase (Equus caballus) (P81908 whole entry): as above
Chain of Acetylcholinesterase (Electrophorus electricus) (O42275 24-633 limits assumed): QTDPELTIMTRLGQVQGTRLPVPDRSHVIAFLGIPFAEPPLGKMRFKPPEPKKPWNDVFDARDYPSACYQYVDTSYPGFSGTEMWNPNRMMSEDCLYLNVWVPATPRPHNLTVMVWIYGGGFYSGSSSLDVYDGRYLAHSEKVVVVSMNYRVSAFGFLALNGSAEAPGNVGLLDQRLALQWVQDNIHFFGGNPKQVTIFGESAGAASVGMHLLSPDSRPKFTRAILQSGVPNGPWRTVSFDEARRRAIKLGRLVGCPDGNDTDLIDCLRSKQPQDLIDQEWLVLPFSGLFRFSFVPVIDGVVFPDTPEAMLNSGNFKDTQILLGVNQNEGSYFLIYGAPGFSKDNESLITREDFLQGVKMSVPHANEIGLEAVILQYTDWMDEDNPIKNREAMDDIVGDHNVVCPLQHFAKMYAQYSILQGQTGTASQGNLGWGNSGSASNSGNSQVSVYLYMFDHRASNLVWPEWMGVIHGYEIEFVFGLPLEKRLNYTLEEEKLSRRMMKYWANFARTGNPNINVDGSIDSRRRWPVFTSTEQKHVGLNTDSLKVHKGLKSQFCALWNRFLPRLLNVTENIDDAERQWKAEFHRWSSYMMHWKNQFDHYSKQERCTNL
Chain of Cholinesterase (Homo sapiens, UniProt P06276) (P06276 whole entry): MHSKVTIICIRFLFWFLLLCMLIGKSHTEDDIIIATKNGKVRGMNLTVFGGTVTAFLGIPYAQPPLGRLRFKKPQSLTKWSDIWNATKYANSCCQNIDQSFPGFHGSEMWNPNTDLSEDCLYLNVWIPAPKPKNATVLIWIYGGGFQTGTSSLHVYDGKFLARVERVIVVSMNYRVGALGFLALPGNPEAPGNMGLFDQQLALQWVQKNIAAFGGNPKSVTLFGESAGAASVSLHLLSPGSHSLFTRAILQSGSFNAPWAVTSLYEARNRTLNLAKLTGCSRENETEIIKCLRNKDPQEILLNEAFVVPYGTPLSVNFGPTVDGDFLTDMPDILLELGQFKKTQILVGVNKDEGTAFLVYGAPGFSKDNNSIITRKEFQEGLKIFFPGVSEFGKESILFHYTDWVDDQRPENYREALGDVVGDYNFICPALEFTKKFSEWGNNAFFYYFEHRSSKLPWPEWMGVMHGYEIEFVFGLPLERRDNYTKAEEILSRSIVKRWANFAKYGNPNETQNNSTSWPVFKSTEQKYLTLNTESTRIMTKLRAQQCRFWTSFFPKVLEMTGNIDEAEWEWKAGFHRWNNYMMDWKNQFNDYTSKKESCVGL

One may read the pIC50 as the IC50 on a negative log10 scale, so that one unit is a factor of ten. The term inhibition denotes the drop in the measured response relative to a control, in per cent. `COc1ccccc1NC(=O)CN(Cc1ccccc1)Cc1ccco1`: the pIC50 against Cholinesterase [1] is 4.58. Besides, the figures for the inhibition in data set [2] and in data set [3] were 44.2% and 14.7%, respectively.
Regarding `O=C(CN(Cc1ccco1)Cc1ccccc1[N+](=O)[O-])Nc1ccccc1`, the Papp at 18 h, 25 ug/ml in data set [4] is 4.93 ×10⁻⁶ cm/s. On Cholinesterase [1], the pIC50 was 5.89. For the same compound, the results for the inhibition in data set [2] and in data set [3] were 61.9% and 15.8%, respectively.
`N#Cc1ccccc1NC(=O)CN(Cc1ccccc1)Cc1ccco1` gave a pIC50 on Cholinesterase [1] of 3.93. Moreover, the inhibition in data set [2] worked out at 36.6%; in data set [3], 10.3%.
As for `O=C(CN(Cc1ccco1)Cc1cccc2ccccc12)Nc1ccccc1`, the pIC50 against Cholinesterase [1] is 4.66. For the same compound, the inhibition in data set [2] is 47.1%; in data set [3] it was 19.6%.
Turning to `Cc1ccccc1NC(=O)CN(Cc1ccc2ccccc2c1)Cc1ccco1`, the Papp at 18 h, 25 ug/ml in [4] stood at 5.67 ×10⁻⁶ cm/s. The pIC50 against Cholinesterase [1] was 5.91. Besides, the results for the viability at 24 h in data set [5], in data set [6] and in [8] were 67.3%, 67.1% and 69.4%, respectively. For the same compound, the inhibition in [2] is 70.6%; in [3], 15.9%. Also, the CC50 at 24 h in data set [7] came to 10.9 µM.
As for `O=C(CN(Cc1ccccc1)Cc1ccco1)Nc1ccccc1`, the pIC50 on Cholinesterase [1] was 4.81. Further, the inhibition in [2] was determined as 39.6%; in [3], 12.6%.
At Cholinesterase [1], `O=C(CN(Cc1ccccc1)Cc1ccco1)Nc1cccc2ccccc12` showed a pIC50 of 5.45. The inhibition in data set [2] was 63%; in data set [3], 13.6%.
Regarding `Cc1cccc(NC(=O)CN(Cc2ccc3ccccc3c2)Cc2ccco2)c1`, the Papp at 18 h, 25 ug/ml in data set [4] was 9.07 ×10⁻⁶ cm/s. In addition, the pIC50 at Cholinesterase [1] is 5.76. Further, the viability at 24 h in data set [5] was found to be 105%; in data set [6], 91.4%; in data set [8], 91.7%. Besides, the inhibition in [2] worked out at 70.5%; in [3], 15.1%. Besides, in data set [7], the CC50 at 24 h was found to be 24.9 µM.
At Cholinesterase [1], `O=C(CN(Cc1ccco1)Cc1ccco1)Nc1ccccc1` gave a pIC50 of 5.11. For the same compound, the inhibition turned out to be 47.3% in data set [2] and 12.6% in [3].
As for `Cc1ccccc1NC(=O)CN(Cc1ccc2ccccc2c1)CC(C)(C)C`, the pIC50 on Cholinesterase [1] is 5.39. In addition, the figures for the inhibition in data set [2] and in data set [3] were 64.6% and 19.6%, respectively.
Taken in the same sequence, the figures for `Cc1ccc(NC(=O)CN(Cc2ccccc2)Cc2ccco2)cc1` were 3.83, 37.5% and 12.8%.
With `CCCN(CC(=O)Nc1ccccc1C)Cc1ccc2ccccc2c1`, the Papp at 18 h, 25 ug/ml in data set [4] amounted to 11.9 ×10⁻⁶ cm/s. Besides, the pIC50 at Cholinesterase [1] was 6.72; at Cholinesterase [9] it was 7.57. Further, the inhibition amounted to 91.3% in data set [2] and 22.9% in data set [3]. In addition, the viability at 24 h in [6] was found to be 51.6%; in data set [8] it was 52.8%. The results for the CC50 at 24 h in [7] and in [10] were 17.6 µM and 45.9 µM, respectively.
For the compound `Cc1cccc(NC(=O)CN(Cc2ccccc2)Cc2ccco2)c1`, the pIC50 at Cholinesterase [1] is 5.13. The inhibition amounted to 57.8% in [2] and 13.3% in data set [3].
With `Cc1cccc(NC(=O)CN(Cc2ccco2)Cc2c[nH]c3ccccc23)c1C`, the pIC50 against Cholinesterase [1] is 4.96. The inhibition in data set [2] is 52.3%; in data set [3] it was 18.2%.
The like results for `O=C(CN(Cc1ccccc1)Cc1ccco1)Nc1cccc(F)c1F` were, in that order, 4.88, 50.1% and 18%.
On to `COc1cccc(NC(=O)CN(Cc2ccccc2)Cc2ccco2)c1`, for which, at Cholinesterase [1], the pIC50 was 4.61. Besides, the inhibition in data set [2] is 50.1%; in [3] it was 9.2%.
`O=C(CN(Cc1ccccc1)Cc1ccco1)Nc1ccc2ccccc2c1` had a pIC50 against Cholinesterase [1] of 5.01. The inhibition in data set [2] was found to be 50.4%; in data set [3] it was 13.9%.
With `O=C(CN(Cc1ccccc1)Cc1ccco1)Nc1cnc2ccccc2c1`, the negative-log IC50 (pIC50) against Cholinesterase [1] is 4.55. For the same compound, the inhibition is 29.6% in data set [2] and 13.2% in data set [3].
`N#Cc1ccc(NC(=O)CN(Cc2ccccc2)Cc2ccco2)cc1` gave a pIC50 against Cholinesterase [1] of 3.15. In addition, the inhibition in data set [2] worked out at 28.6%; in data set [3], 9.68%.
At Cholinesterase [1], `c1ccc(CCCN(Cc2ccc3ccccc3c2)Cc2ccco2)cc1` had a pIC50 of 4.80. For the same compound, the inhibition in data set [2] stood at 42.5%; in [3], 13.4%.
For the compound `Cc1ccccc1NC(=O)CN(Cc1ccc2ccccc2c1)C1CCCCC1`, the pIC50 on Cholinesterase [1] is 5.37. Further, the inhibition in data set [2] worked out at 57.5%; in [3], 25.3%.
`CN(C)CCCN1c2ccccc2Sc2ccc(Cl)cc21` [CHLORPROMAZINE]: the Papp at 18 h, 25 ug/ml in [4] turned out to be 6.69 ×10⁻⁶ cm/s.
Take `COc1ccc(NC(=O)CN(Cc2ccccc2)Cc2ccco2)cc1`: at Cholinesterase [1], the pIC50 was 3.92. Besides, the values for the inhibition in data set [2] and in data set [3] were 21.6% and 18.2%, respectively.
Take `O=C(CN(Cc1ccccc1)Cc1ccco1)Nc1ccc(C(F)(F)F)cc1`: the pIC50 on Cholinesterase [1] was 5.17. Moreover, the inhibition stood at 50.9% in data set [2] and 13.4% in data set [3].
`O=C(CN(Cc1ccccc1)Cc1ccco1)Nc1cccc(Cl)c1` had a pIC50 at Cholinesterase [1] of 4.32. Besides, the inhibition in data set [2] is 42.8%; in [3], 19.6%.
As for `O=C(CN(Cc1ccccc1)Cc1ccco1)Nc1ccccc1F`, the pIC50 against Cholinesterase [1] is 5.05. The inhibition in data set [2] turned out to be 50.9%; in [3], 14.1%.
The compound `Cc1ccccc1NC(=O)CN(Cc1ccccc1)Cc1ccco1` gave a pIC50 on Cholinesterase [1] of 5.26. Further, the inhibition in data set [2] is 54.7%; in data set [3], 14.2%.
Taken in the same sequence, the figures for `O=C(CN(Cc1ccccc1)Cc1ccco1)Nc1ccc2c(c1)OCO2` were 5.08, 57.3% and 15.2%.
Taken in the same sequence, the figures for `O=C(CN(Cc1ccccc1)Cc1ccco1)Nc1cccc(F)c1` were 4.50, 47% and 17.3%.
On Cholinesterase [1], `Cc1cccc(NC(=O)CN(Cc2ccc3ccccc3c2)Cc2ccco2)c1C` had a negative logarithm of the IC50 (pIC50) of 4.96. Also, the inhibition in data set [2] was determined as 48.1%; in data set [3], 15.3%.
Compound `Cc1cccc(NC(=O)CN(Cc2ccco2)Cc2c[nH]c3ccccc23)c1` showed a pIC50 at Cholinesterase [1] of 5.18. For the same compound, the inhibition in [2] was 55.2%; in [3] it was 14.3%.
At Cholinesterase [1], `COc1cc(NC(=O)CN(Cc2ccccc2)Cc2ccco2)cc(OC)c1OC` showed a pIC50 of 4.28. The inhibition in data set [2] was 18.9%; in data set [3] it was 16.1%.
Take `O=C(CN(Cc1ccccc1)Cc1ccco1)Nc1ccc(F)cc1`: the pIC50 on Cholinesterase [1] was 4.55. Besides, the inhibition in data set [2] worked out at 47.1%; in [3], 14.5%.
`Cc1ccccc1NC(=O)CN(Cc1ccco1)Cc1c[nH]c2ccccc12`: the pIC50 at Cholinesterase [1] is 5.36. Moreover, the inhibition in data set [2] worked out at 64.7%; in [3] it was 14.2%.
As for `O=C(CN(Cc1ccccc1)Cc1ccco1)Nc1cccc(Br)c1`, the pIC50 against Cholinesterase [1] is 5.21. Also, the inhibition in [2] was determined as 54.7%; in data set [3], 13.4%.
On to `C[C@]12CC[C@@H]3c4ccc(O)cc4CC[C@H]3[C@@H]1CC[C@@H]2O` [ESTRADIOL], for which, in data set [4], the Papp at 18 h, 25 ug/ml was 14.6 ×10⁻⁶ cm/s.
`O=C(CN(Cc1ccccc1)Cc1ccco1)Nc1ccccc1Cl`: the pIC50 at Cholinesterase [1] is 5.00. Besides, the results for the inhibition in data set [2] and in [3] were 50.5% and 17.5%, respectively.
